The record followed here is patent US8653114B2, “O-cyclopropylcyclohexyl-carboxanilides and their use as fungicides” (priority 2010, dated 2014).

Where two headings read alike, the source gives them in different places.

For one data set, the system named is Venturia inaequalis. As to the kind of experiment: Venturia test (apples) / preventive. In kind it is in vivo. The settings on record: 100 ppm of active ingredient, evaluated 10 days after inoculation. The procedure:
Venturia Test (Apples)/Preventive [table] To produce a suitable preparation of active compound, 1 part by weight of active compound is mixed with the stated amounts of solvent and emulsifier, and the concentrate is diluted with water to the desired concentration. To test for preventive activity, young plants are sprayed with the preparation of active compound at the stated rate of application.

The subject of the next data set is Podosphaera leucotricha. Nature of the data set: Podosphaera test (apples) / preventive. It counts as in vivo. The settings on record: 100 ppm of active ingredient, evaluated 10 days after inoculation. As for the experimental part:
Podosphaera Test (Apples)/Preventive [table] To produce a suitable preparation of active compound, 1 part by weight of active compound is mixed with the stated amounts of solvent and emulsifier, and the concentrate is diluted with water to the desired concentration. To test for preventive activity, young plants are sprayed with the preparation of active compound at the stated rate of application. After the spray coating has dried on, the plants are inoculated with an aqueous spore suspension of the causal agent of apple mildew (Podosphaera leucotricha). The plants are then placed in a greenhouse at approximately 23° C. and a relative atmospheric humidity of approximately 70%.

The test system of a further data set is Pyrenophora teres. Nature of the data set: Pyrenophora test (barley) / preventive. It counts as in vivo. To be noted: 500 ppm of active ingredient, evaluated 7-9 days after inoculation. As for the experimental part: (§1) Pyrenophora Test (Barley)/Preventive [table] To produce a suitable preparation of active compound, 1 part by weight of active compound is mixed with the stated amounts of solvent and emulsifier, and the concentrate is diluted with water to the desired concentration. To test for preventive activity, young plants are sprayed with the preparation of active compound at the stated rate of application. One day after this treatment, the plants are inoculated with an aqueous spore suspension of Pyrenophora teres.

For a further data set, the system named is Puccinia triticina. Nature of the data set: Puccinia triticina-test (wheat) / preventive. The settings on record: 500 ppm of active ingredient, evaluated 8 days after inoculation. In kind it is in vivo. The procedure:
Puccinia triticina-Test (Wheat)/Preventive [table] To produce a suitable preparation of active compound, 1 part by weight of active compound or active compound combination is mixed with the stated amounts of solvent and emulsifier, and the concentrate is diluted with water to the desired concentration. To test for preventive activity, young plants are sprayed with the preparation of active compound or active compound combination at the stated rate of application. After the spray coating has been dried, the plants are sprayed with a spore suspension of Puccinia triticina.

Data set [1] deals with Blumeria graminis f. sp. hordei. As to the kind of experiment: Blumeria test (barley) / preventive. In kind it is in vivo. To be noted: 500 ppm of active ingredient, evaluated 7 days after inoculation. As for the experimental part: Blumeria Test (Barley)/Preventive [table] To produce a suitable preparation of active compound, 1 part by weight of active compound or active compound combination is mixed with the stated amounts of solvent and emulsifier, and the concentrate is diluted with water to the desired concentration. To test for preventive activity, young plants are sprayed with the preparation of active compound or active compound combination at the stated rate of application. After the spray coating has been dried, the plants are dusted with spores of Blumeria graminis f. sp. hordei.

Data set [2] has as its system Fusarium nivale (var. majus). Nature of the data set: Fusarium nivale (var. majus)-test (wheat) / preventive. To be noted: 500 ppm of active ingredient, evaluated 5 days after inoculation. In kind it is in vivo. As for the experimental part: Fusarium nivale (var. majus)-Test (Wheat)/Preventive [table] To produce a suitable preparation of active compound, 1 part by weight of active compound or active compound combination is mixed with the stated amounts of solvent and emulsifier, and the concentrate is diluted with water to the desired concentration. To test for preventive activity, young plants are sprayed with the preparation of active compound or active compound combination at the stated rate of application. After the spray coating has been dried, the plants are slightly injured by using a sandblast and afterwards they are sprayed with a conidia suspension of Fusarium nivale (var. majus).

The subject of a further data set is Septoria tritici. As to the kind of experiment: Septoria tritici-test (wheat) / preventive. In kind it is in vivo. To be noted: 500 ppm of active ingredient, evaluated 21 days after inoculation. The procedure:
Septoria tritici-Test (Wheat)/Preventive [table] To produce a suitable preparation of active compound, 1 part by weight of active compound or active compound combination is mixed with the stated amounts of solvent and emulsifier, and the concentrate is diluted with water to the desired concentration. To test for preventive activity, young plants are sprayed with the preparation of active compound or active compound combination at the stated rate of application. After the spray coating has been dried, the plants are sprayed with a spore suspension of Septoria tritici.

The next data set deals with Sphaerotheca fuliginea. Nature of the data set: Sphaerotheca test (cucumber) / preventive. To be noted: 500 ppm of active ingredient, evaluated 7 days after inoculation. It counts as in vivo. As for the experimental part: as §1, with “Sphaerotheca” for “Pyrenophora”, “(Cucumber)/Preventive” for “(Barley)/Preventive”, “Sphaerotheca fuliginea. Then the plants are placed in a greenhouse at approximately 23° C. and a relative atmospheric humidity of approximately 70%.” for “Pyrenophora teres.”

Data set [3] can be described thus: log P by HPLC on reversed phase columns (EEC directive 79/831 Annex V.A8). In kind it is physicochemical. To be noted: for chromatographic logP: reversed phase HPLC columns. As for the experimental part:
Measurement of log P values was performed according EEC directive 79/831 Annex V.A8 by HPLC (High Performance Liquid Chromatography) on reversed phase columns with the following methods:
^[b] measurement of LC-MS was done at pH 2.7 with 0.1% formic acid in water and with acetonitrile (contains 0.1% formic acid) as eluent with a linear gradient from 10% acetonitrle to 95% acetonitrile.

Another data set concerns Alternaria solani. Nature of the data set: Alternaria test (tomato) / preventive. It counts as in vivo. To be noted: 500 ppm of active ingredient, evaluated 7 days after inoculation. As for the experimental part:
Alternaria Test (Tomato)/Preventive [table] To produce a suitable preparation of active compound, 1 part by weight of active compound is mixed with the stated amounts of solvent and emulsifier, and the concentrate is diluted with water to the desired concentration. To test for preventive activity, young plants are sprayed with the preparation of active compound at the stated rate of application. One day after this treatment, the plants are inoculated with an aqueous spore suspension of Alternaria solani.

As to `Cn1nc(C(F)F)c(C(=O)NC2CCCCC2C2CC2C2CC2)c1F` (single isomer, unassigned) [Example 1, N-{2-[1,1′-bi(cyclopropyl)-2-yl]cyclohexyl}-3-(difluoromethyl)-5-fluoro-1-methyl-1H-pyrazole-4-carboxamide], the Eff. % (in the data set on Venturia inaequalis; in the data set on Podosphaera leucotricha; with Pyrenophora teres; with Puccinia triticina; in data set [1]; in [2]) was 100% each time. Also, the Eff. % with Septoria tritici is 90%; in the data set on Sphaerotheca fuliginea, 100%; with Alternaria solani it was 100%. The chromatographic logP was determined as 4.02 in data set [3] (pH 2.7, HPLC/LC-MS at pH 2.7, 0.1% formic acid in water / acetonitrile gradient, read-out: Log P[b]) and 4.02 in [3] (pH 2.7, acid, product isolated with a purity of 87% LC-MS, read-out: log P (acid)).
Take `Cn1nc(C(F)F)c(C(=O)NC2CCCCC2C2CC2C2CC2)c1F` (single isomer, unassigned) [Example 2, N-{2-[1,1′-bi(cyclopropyl)-2-yl]cyclohexyl}-3-(difluoromethyl)-5-fluoro-1-methyl-1H-pyrazole-4-carboxamide]: the Eff. % (in the data set with Venturia inaequalis; with Podosphaera leucotricha; in the data set on Pyrenophora teres; in the data set with Puccinia triticina; in data set [1]; in data set [2]) was 100% in each case. Moreover, the Eff. % in the data set with Septoria tritici amounted to 90%; in the data set on Sphaerotheca fuliginea it was 100%; in the data set on Alternaria solani, 100%. Also, in [3] (HPLC/LC-MS at pH 2.7, 0.1% formic acid in water / acetonitrile gradient), the “Log P[b]” value was 3.84.
